Measurements from patent US20170114025A1, “METHODS FOR INHIBITING NECROPTOSIS” (Catalyst Therapeutics Pty Ltd, priority 2014, published 2017).
Like-named read-outs stand apart in the source and are kept apart here.

Columns and labels:
wild type U937 cells = assay: Cell death assay, TSQ-induced necroptosis in U937 cells (PI, flow cytometry); format: cell-based, human; settings: for IC50: Homo sapiens
Excerpt: (§1) Mouse dermal fibroblasts (MDFs) were isolated from three MlkI^−/− mice and three congenic wild type mice and then immortalized by SV40 large T antigen to generate three biologically independent cell lines, as described in Murphy J M, et al. (2013), Immunity 39(3):443-453. Immortalized MDFs were similarly prepared from three Ripk3^−/− mice and congenic wild type mice. MDFs and HEK293T were maintained in Dulbecco's modified Eagle's medium (DMEM) supplemented with 8-10% v/v fetal calf serum (FCS), and 5 μg/mL puromycin for lines stably transduced with inducible expression constructs for MLKL. U937 cells were cultured in RPMI1640 supplemented with 8% v/v FCS. Cell death assays were carried out in 24 well plates, seeding 1×10^5 cells per well. Cells attached over 4 h in the presence of 10 ng/mL doxycycline or 20 ng/mL were then treated with assorted combinations of Necrostatin (50 μM) and Q-VD-OPh (5 μM) 30 min prior to addition of TNF (100 ng/mL) and Smac mimetic (500 nM). After 24 h for MDF cells or 48 h for U937 cells, cells were harvested and PI positive cells (1 μg/mL) quantified using a BD FACSCalibur flow cytometer.

[1] = test system: U937 human histiocytic leukemia cell line; assay: Screening for inhibition of TSQ induced necroptosis, 96 well plate format; format: cell-based
Procedure: Screening Compounds for Inhibition of TSQ Induced Necroptosis, 96 Well Plate Format.
U937 human histiocytic leukemia cell line.
35,000 per well in 120 μL of media, counted and plated immediately prior to addition of inhibitor and death stimuli. Final well volume of 150 μL after addition of compounds and death stimuli
HTRPMI (WEHI Media kitchen, contains L-Glutamine and penicillin, streptomycin)—supplemented with 7.4% v/v FCS (Gibco, Precision Plus. Lot #1221437)
48 hours following addition of compounds and death stimuli
DMSO Final Concentration (% v/v): 0.2%
Compounds that are in the Death Stimulation Cocktail and their Final Concentrations: • hTNF-Fc (100 ng/ml)—produced by Silke lab, WEHI • Compound A (500 nM)—Smac mimetic, Tetralogic • Q-VD-OPh (10 μM)—MP Biomedicals
Analysis: • Cells treated with PI staining (1 μg/ml) and analysed by flow cytometry
TNF; S: Smac mimetic; Q: Q-VD-OPh): TSQ treatment ensures that cells specifically undergo necroptotic cell death. TNF activates the TNF receptor, Smac mimetic direct the signal away from proinflammatory signaling and toward the RIP1/RIP3-mediated cell death pathways, and Q-VD-OPh ensures that the apoptotic response is blocked leaving only the programmed necrosis response. The compounds' activity (solution in DMSO) tested in this TSQ-induced assay is evaluated by measuring their ability to block cell death as measured by flow cytometry after PI staining.

U937 cells = assay: Counter screen: cell viability without TSQ cocktail (off target effect); format: cell-based; settings: U937 without TSQ cocktail; for Off target effect (% cell death) at 500 nM: compound at 500 nM; for Off target effect (% cell death) at 1 uM: compound at 1 uM; for Off target effect (% cell death) at 5 uM: compound at 5 uM; for Off target effect (% cell death) at 10 uM: compound at 10 uM
Procedure: In parallel, all compounds are tested for their ability to affect cell viability. The same U937 cells are treated with compound in DMSO without the TSQ cocktail. This counter screen enables evaluation of off-target effects. In this case gain, cell viability is measured by flow cytometry after PI staining.

[2] = molecular target: T1, human MLKL(190-471) pseudokinase domain (Homo sapiens, UniProt Q8NB16); assay: Surface Plasmon Resonance (SPR) binding, human MLKL; design: made in house; host or cells: Sf21 insect cells; settings: read-out: Affinity (Kd) as determined by SPR
T1 sequence (Q8NB16 190-471): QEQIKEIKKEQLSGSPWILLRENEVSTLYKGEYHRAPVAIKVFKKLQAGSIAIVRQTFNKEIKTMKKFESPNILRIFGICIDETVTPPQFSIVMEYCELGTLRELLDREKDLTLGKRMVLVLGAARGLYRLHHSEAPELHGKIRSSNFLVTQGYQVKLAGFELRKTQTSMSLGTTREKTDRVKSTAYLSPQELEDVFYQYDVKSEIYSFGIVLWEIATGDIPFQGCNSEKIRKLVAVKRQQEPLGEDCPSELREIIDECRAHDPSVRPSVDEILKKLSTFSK
Excerpt: Double His-tagged MLKL and an unrelated negative control reference protein were immobilized on an NTA Capture chip charged with Ni^2+ according to manufacturer's instructions. In some instances, double His-tagged proteins were captured via Ni^2+/NTA chelation on a series S sensor chip containing carboxymethylated dextran surface pre-immobilized with nitrilotriacetic acid (NTA). The surface was then activated and enhanced with NHS/EDC mixture and His captured proteins covalently coupled to the surface as succinamide esters. Ethanolamine was injected later to block any unreacted esters. Unbound Ni^2+ and non-covalently bound proteins were eluted by EDTA injections.
Typical immobilization levels were 2000-3000 Response Units (RU). Flow cell 1 was left blank as a reference surface. Immobilization experiments were carried out at 25° C. in a running buffer containing 20 mM HEPES (pH 8.0), 200 mM NaCl and 0.005% (v/v) surfactant P20.
Binding experiments were carried out in Running Buffer+2% v/v DMSO. […] Data were reduced, solvent corrected, and double referenced by Biacore T200 Evaluation Software. Data were fit globally to a two state kinetic interaction model and the Kd determined from the (kd/ka) ratio. A 1:1 binding stoichiometry was inferred from the steady state binding curves and the maximum observed Response Unit (RU) levels.

[3] = molecular target: T2, human MLKL ATP-binding site (Homo sapiens, UniProt Q8NB16); assay: Complex between compound and human MLKL (FIG. 5); settings: FIG. 5 (A) and (B)
T2 sequence (Q8NB16 1-471): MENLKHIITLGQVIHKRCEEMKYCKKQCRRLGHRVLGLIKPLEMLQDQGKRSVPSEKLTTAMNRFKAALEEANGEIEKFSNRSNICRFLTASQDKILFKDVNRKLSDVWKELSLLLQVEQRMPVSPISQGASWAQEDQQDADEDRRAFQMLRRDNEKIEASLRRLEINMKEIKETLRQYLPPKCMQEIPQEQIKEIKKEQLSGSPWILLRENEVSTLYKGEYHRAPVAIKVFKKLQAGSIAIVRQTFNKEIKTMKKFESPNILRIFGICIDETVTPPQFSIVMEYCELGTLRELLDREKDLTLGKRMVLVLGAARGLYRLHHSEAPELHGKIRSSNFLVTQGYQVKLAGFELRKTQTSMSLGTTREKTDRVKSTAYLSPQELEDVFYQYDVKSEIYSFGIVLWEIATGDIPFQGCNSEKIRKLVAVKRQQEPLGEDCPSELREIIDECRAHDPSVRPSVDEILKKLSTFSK

[4] = test system: wild type MDFs (mouse dermal fibroblasts); assay: Cell death assay, TSQ-induced necroptosis in MDFs (PI, flow cytometry); format: cell-based; settings: wild type MDFs; at same or less than 1 μM
Excerpt: as §1

[5] = U-937, Table 1, U937 cells, TSQ-induced necroptosis, read-out: Inhibition of necroptosis (IC50)
[6] = U-937, U937, TSQ, 48 hours, unit not given in Table 2 (titrations given in nM), read-out: Cell based assay IC50
[7] = U-937, U937, TSQ, 48 hours, average IC50, unit not given in Table 2 (titrations in nM), read-out: Cell based assay Average
[8] = U-937, 48 h, read-out: Cell based assay Average
[9] = U-937, 48 h, read-out: Cell based assay IC50

## CN(c1ccc(NC(=O)Nc2ccccc2)cc1)c1ccnc(Nc2cccc(S(N)(=O)=O)c2)n1 [Compound 2]
Wild type U937 cells; [5]
  IC50: 400 to 800 nM
[1]; [6]
  IC50: 123 nM
U937 cells
  Off target effect (% cell death) at 500 nM: 24%
  Off target effect (% cell death) at 1 uM: 23%
  Off target effect (% cell death) at 5 uM: 32%
  Off target effect (% cell death) at 10 uM: 87%
[2]
  Kd: 1300 nM

## CN(c1ccc(NC(=O)Nc2cc(C(F)(F)F)ccc2F)cc1)c1ccnc(Nc2cccc(S(N)(=O)=O)c2)n1 [Compound 3]
Wild type U937 cells; [5]
  IC50: 1 to 5 nM
[1]; [7]
  IC50: 15.3 nM
[1]; [6]
  IC50: 3.31 nM
U937 cells
  Off target effect (% cell death) at 500 nM: 40%
  Off target effect (% cell death) at 1 uM: 72%
  Off target effect (% cell death) at 5 uM: 86%
  Off target effect (% cell death) at 10 uM: 84%
[3]
  binding site in complex with human MLKL: binds within the ATP-binding site of human MLKL

## CN(c1ccc(NC(=O)Nc2ccc(OC(F)(F)F)cc2)cc1)c1ccnc(Nc2ccc(S(N)(=O)=O)cc2)n1 [Compound 4, 4-(4-(Methyl(4-(3-(4-(trifluoromethoxy)phenyl)ureido)phenyl)amino)pyrimidin-2-ylamino)benzenesulfonamide]
Wild type U937 cells; U-937, read-out: Inhibition of necroptosis (IC50)
  IC50: > 1000 nM
[1]; [8]
  IC50: > 5000 nM
[1]; [9]
  IC50: 1460 nM
[2]
  Kd: 4700 nM

## COCCNS(=O)(=O)c1cccc(Nc2nccc(N(C)c3ccc(NC(=O)Nc4ccc(OC(F)(F)F)cc4)cc3)n2)c1 [Compound 23, N-(2-Methoxyethyl)-3-(4-(methyl(4-(3-(4-(trifluoromethoxy)phenyl)-ureido)phenyl)amino)pyrimidin-2-ylamino)benzenesulfonamide]
[1]; [7]
  IC50: 43.9 nM
[1]; [6]
  IC50: 39 nM
U937 cells
  Off target effect (% cell death) at 500 nM: 21%
  Off target effect (% cell death) at 1 uM: 21%
  Off target effect (% cell death) at 5 uM: 22%
  Off target effect (% cell death) at 10 uM: 64%

## NS(=O)(=O)c1cccc(Nc2nccc(N(c3ccc(NC(=O)Nc4ccc(OC(F)(F)F)cc4)cc3)C3CC3)n2)c1 [Compound 24, 3-((4-(Cyclopropyl(4-(3-(4-(trifluoromethoxy)phenyl)ureido)-phenyl)amino)-pyrimidin-2-yl)amino)benzenesulfonamide]
[1]; [8]
  IC50: 176 nM
[1]; [9]
  IC50: 144 nM
U937 cells
  Off target effect (% cell death) at 500 nM: 20%
  Off target effect (% cell death) at 1 uM: 21%
  Off target effect (% cell death) at 5 uM: 66%
  Off target effect (% cell death) at 10 uM: 80%

## CN(c1ccc(NC(=O)Nc2ccc(OC(F)(F)F)cc2)cc1)c1ccnc(Nc2cccc(S(C)(=O)=O)c2)n1 [Compound 25, 1-(4-(Methyl(2-((3-(methylsulfonyl)phenyl)amino)pyrimidin-4-yl)amino)phenyl)-3-(4-(trifluoromethoxy)phenyl)urea]
[1]; [7]
  IC50: 32.9 nM
[1]; [6]
  IC50: 21.7 nM
U937 cells
  Off target effect (% cell death) at 500 nM: <20%
  Off target effect (% cell death) at 1 uM: <20%
  Off target effect (% cell death) at 5 uM: 43%
  Off target effect (% cell death) at 10 uM: 86%

## CCN(c1ccc(NC(=O)Nc2ccc(OC(F)(F)F)cc2)cc1)c1ccnc(Nc2cccc(S(N)(=O)=O)c2)n1 [Compound 26, 3-((4-(ethyl(4-(3-(4-(trifluoromethoxy)phenyl)ureido)phenyl)-amino)pyrimidin-2-yl)amino)benzenesulfonamide]
[1]; [8]
  IC50: 93.6 nM
[1]; [9]
  IC50: 126 nM
U937 cells
  Off target effect (% cell death) at 500 nM: <20%
  Off target effect (% cell death) at 1 uM: <20%
  Off target effect (% cell death) at 5 uM: 43%
  Off target effect (% cell death) at 10 uM: 69%

## CN(c1ccc(NC(=O)Nc2ccc(OC(F)(F)F)cc2)cc1)c1ccnc(Nc2cccc(CS(C)(=O)=O)c2)n1 [Compound 27, 1-(4-(Methyl(2-((3-((methylsulfonyl)methyl)phenyl)amino)pyrimidin-4-yl)amino)phenyl)-3-(4-(trifluoromethoxy)phenyl)urea]
[1]; [7]
  IC50: 114 nM
[1]; [6]
  IC50: 191 nM
U937 cells
  Off target effect (% cell death) at 500 nM: 24%
  Off target effect (% cell death) at 1 uM: 20%
  Off target effect (% cell death) at 5 uM: 33%
  Off target effect (% cell death) at 10 uM: 84%

## CNC(=O)c1cc(Oc2ccc(NC(=O)Nc3ccc(Cl)c(C(F)(F)F)c3)cc2)ccn1 [Sorafenib, reference compound]
[4]
  inhibition of TSQ-induced necroptosis: did not inhibit
Wild type U937 cells; wild type U937 cells
  inhibition of TSQ-induced necroptosis: did not inhibit
